Experimental data published in ChEMBL document CHEMBL1909046, “DrugMatrix in vitro pharmacology data”.

Legend:
[1] = target: T1, C-X-C chemokine receptor type 1 (Homo sapiens, UniProt P25024); further: in other assays of this panel Not Active means under 50% inhibition at 10 µM
T1 sequence (P25024 whole entry): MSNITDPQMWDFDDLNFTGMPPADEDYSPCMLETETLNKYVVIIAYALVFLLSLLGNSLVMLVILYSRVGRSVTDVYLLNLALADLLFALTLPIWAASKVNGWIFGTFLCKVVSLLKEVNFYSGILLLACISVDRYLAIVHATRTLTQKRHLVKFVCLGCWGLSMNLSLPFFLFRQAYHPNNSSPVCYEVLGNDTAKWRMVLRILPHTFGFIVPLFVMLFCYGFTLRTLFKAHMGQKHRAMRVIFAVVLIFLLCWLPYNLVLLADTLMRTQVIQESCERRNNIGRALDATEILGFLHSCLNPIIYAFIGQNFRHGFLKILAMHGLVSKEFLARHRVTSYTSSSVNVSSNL

[2] = target: Vasopressin V1a receptor (Homo sapiens, UniProt P37288); assay type: cell membranes, Membrane; conditions: hek293; further: in other assays of this panel Not Active means under 50% inhibition at 10 µM
Sequence of Vasopressin V1a receptor (P37288 whole entry): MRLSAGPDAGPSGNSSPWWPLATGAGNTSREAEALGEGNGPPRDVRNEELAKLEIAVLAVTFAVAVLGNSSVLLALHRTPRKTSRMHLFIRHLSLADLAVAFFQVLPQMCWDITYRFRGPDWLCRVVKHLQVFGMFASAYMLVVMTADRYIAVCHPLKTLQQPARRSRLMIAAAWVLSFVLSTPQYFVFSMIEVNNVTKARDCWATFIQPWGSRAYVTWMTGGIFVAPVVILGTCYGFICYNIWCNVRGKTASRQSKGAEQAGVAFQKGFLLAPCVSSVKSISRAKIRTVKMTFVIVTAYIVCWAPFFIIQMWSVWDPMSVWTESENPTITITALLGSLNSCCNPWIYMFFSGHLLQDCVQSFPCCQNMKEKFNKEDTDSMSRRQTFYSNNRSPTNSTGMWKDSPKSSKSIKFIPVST

[3] = target: T2, Angiotensin-converting enzyme (Oryctolagus cuniculus, UniProt P12822); assay type: tissue-based, Lung;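 further: enzymatic inhibition of angiotensin-converting enzyme measured with FAPGG as the substrate; in other assays of this panel Not Active means under 50% inhibition at 10 µM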
T2 sequence (P12822 whole entry): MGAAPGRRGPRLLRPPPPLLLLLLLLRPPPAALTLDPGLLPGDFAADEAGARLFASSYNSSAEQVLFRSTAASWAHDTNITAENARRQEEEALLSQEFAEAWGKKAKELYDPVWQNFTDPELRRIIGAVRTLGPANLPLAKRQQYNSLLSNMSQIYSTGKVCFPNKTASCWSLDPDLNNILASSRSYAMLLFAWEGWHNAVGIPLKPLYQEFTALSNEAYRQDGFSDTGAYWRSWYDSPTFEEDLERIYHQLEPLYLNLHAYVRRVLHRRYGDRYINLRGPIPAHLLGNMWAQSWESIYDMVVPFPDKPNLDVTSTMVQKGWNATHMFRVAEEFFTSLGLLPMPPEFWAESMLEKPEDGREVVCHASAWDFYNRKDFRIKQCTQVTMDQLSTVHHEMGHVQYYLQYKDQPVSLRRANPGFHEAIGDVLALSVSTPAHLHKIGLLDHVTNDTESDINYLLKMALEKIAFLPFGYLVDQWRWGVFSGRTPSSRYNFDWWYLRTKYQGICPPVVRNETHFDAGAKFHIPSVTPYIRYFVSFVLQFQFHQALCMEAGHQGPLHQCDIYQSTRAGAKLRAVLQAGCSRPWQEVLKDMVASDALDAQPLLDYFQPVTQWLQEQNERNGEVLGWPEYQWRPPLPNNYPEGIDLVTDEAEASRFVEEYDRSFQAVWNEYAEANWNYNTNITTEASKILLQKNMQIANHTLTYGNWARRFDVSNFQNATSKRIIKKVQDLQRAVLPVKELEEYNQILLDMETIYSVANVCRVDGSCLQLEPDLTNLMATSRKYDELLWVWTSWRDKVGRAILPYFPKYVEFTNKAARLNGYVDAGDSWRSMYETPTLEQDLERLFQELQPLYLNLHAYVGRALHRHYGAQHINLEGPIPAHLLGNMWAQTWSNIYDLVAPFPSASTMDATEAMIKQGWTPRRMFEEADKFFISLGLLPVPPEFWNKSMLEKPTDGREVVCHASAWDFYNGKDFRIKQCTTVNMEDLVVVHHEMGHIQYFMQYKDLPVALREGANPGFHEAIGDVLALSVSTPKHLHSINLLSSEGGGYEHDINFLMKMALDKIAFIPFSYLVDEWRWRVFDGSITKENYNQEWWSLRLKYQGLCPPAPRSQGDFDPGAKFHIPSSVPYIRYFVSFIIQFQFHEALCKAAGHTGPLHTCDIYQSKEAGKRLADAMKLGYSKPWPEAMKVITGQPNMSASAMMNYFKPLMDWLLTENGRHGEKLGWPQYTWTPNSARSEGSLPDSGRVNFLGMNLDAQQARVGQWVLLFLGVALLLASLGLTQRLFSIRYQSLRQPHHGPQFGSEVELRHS

[4] = target: Tyrosine-protein kinase Lck (Homo sapiens, UniProt P06239); experiment: DRUGMATRIX: Protein Tyrosine Kinase, LCK enzyme inhibition (substrate: Poly(Glu:Tyr)); assay type: cell-based, Insect cells; conditions: insect cells; Not Active = under 50% inhibition at 10 µM
Sequence of Tyrosine-protein kinase Lck (P06239 whole entry): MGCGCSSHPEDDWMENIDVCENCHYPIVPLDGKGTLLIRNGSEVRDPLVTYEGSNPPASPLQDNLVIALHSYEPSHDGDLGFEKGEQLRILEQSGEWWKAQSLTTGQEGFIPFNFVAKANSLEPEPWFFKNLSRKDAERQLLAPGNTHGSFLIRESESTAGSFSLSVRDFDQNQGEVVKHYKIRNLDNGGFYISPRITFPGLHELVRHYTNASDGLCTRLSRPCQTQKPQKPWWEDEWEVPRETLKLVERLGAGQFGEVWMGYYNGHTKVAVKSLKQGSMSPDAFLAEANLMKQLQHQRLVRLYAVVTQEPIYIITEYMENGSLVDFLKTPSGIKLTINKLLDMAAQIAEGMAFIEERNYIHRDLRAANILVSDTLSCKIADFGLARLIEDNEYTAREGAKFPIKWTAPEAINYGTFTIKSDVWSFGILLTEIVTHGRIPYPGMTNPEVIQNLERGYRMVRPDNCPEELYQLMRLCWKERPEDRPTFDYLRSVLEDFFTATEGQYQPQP

[5] = target: Estrogen receptor beta (Homo sapiens, UniProt Q92731); conditions: sf9; further: in other assays of this panel Not Active means under 50% inhibition at 10 µM
Sequence of Estrogen receptor beta (Q92731 whole entry): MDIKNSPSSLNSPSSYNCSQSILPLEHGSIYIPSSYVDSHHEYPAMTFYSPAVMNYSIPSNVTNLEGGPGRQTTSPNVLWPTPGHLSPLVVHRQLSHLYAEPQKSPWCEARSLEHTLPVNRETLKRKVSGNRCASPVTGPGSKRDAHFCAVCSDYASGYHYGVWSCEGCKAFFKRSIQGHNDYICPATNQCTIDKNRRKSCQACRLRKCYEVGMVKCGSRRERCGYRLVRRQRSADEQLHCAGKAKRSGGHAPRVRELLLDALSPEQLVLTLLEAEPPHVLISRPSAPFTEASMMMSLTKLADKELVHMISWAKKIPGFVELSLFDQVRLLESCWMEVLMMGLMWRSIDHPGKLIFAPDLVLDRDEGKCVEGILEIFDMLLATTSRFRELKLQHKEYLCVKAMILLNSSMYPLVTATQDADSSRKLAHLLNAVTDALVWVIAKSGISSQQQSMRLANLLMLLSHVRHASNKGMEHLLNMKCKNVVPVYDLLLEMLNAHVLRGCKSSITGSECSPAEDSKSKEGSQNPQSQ

[6] = target: T3, Alpha-2A adrenergic receptor (Homo sapiens, UniProt P08913); assay type: cell membranes, Sf9, Membrane; conditions: sf9; further: in other assays of this panel Not Active means under 50% inhibition at 10 µM
T3 sequence (P08913 whole entry): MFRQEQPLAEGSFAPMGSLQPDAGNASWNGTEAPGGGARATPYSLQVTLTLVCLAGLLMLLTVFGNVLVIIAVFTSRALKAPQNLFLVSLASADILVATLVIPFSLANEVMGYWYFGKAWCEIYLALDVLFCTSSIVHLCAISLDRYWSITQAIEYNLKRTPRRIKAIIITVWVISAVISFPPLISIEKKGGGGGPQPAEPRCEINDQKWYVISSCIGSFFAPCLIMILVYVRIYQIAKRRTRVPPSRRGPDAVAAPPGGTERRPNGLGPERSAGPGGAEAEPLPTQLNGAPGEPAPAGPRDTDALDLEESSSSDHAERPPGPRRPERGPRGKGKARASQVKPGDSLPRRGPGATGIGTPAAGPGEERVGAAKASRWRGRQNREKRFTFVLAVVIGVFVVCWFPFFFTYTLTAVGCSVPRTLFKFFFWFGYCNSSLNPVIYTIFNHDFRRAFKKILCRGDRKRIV

[7] = target: T4, Neuropeptide Y receptor type 2 (Homo sapiens, UniProt P49146); assay type: cell membranes, Membrane; conditions: kan-ts; further: in other assays of this panel Not Active means under 50% inhibition at 10 µM
T4 sequence (P49146 whole entry): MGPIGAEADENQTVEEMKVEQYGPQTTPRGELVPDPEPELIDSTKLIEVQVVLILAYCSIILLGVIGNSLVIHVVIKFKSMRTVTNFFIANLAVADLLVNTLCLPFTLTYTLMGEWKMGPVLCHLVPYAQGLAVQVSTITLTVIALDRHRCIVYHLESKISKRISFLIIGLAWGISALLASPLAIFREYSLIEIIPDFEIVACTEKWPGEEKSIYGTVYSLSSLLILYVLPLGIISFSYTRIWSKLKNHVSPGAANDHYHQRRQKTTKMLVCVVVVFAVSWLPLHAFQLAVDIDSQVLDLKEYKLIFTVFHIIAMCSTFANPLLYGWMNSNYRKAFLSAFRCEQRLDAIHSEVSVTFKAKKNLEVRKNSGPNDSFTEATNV

[8] = target: Mitogen-activated protein kinase 3 (Homo sapiens, UniProt P27361); experiment: DRUGMATRIX: Protein Serine/Threonine Kinase, ERK1 enzyme inhibition (substrate: Myelin Basic Protein); design: species or system Escherichia coli; conditions: Not Active = under 50% inhibition at 10 µM
Sequence of Mitogen-activated protein kinase 3 (P27361 whole entry): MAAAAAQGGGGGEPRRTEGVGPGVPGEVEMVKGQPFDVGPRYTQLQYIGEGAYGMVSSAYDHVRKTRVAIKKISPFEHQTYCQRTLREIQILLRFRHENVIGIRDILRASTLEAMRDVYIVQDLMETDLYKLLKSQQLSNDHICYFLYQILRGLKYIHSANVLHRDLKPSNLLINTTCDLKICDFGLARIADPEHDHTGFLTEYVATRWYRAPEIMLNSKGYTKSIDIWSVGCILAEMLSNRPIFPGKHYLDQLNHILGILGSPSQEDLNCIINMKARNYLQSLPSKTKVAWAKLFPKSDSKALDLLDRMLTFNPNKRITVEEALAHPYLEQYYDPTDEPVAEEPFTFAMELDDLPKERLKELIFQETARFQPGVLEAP

[9] = target: Acetylcholinesterase (Homo sapiens, UniProt P22303); experiment: DRUGMATRIX: Acetylcholinesterase enzyme inhibition (substrate: acetylthiocholine); assay type: cell-based, HEK293; conditions: hek293; Not Active = under 50% inhibition at 10 µM
Sequence of Acetylcholinesterase (P22303 whole entry): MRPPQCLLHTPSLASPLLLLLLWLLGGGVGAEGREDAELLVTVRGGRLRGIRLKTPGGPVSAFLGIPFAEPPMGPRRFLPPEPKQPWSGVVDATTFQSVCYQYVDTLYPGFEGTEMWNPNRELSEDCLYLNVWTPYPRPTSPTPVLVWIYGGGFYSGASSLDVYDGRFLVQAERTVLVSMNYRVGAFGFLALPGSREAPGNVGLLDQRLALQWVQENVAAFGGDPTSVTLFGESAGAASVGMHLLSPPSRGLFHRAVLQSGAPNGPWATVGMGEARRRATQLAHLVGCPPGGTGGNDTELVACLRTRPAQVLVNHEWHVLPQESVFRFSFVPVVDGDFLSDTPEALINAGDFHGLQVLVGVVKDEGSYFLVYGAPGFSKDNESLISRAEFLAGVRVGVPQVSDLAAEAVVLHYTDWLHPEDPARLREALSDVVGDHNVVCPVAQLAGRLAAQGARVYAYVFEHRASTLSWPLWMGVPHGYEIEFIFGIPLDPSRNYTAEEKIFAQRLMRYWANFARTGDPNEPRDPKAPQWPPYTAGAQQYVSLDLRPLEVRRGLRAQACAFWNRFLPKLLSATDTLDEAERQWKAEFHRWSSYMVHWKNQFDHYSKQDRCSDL

Measured: IC50

CN1C(C(=O)Nc2ccccn2)=C(O)c2sccc2S1(=O)=O [TENOXICAM]
Not Active: [1] | [2] | [3] | [4] | [5] | [6] | [7] | [8] | [9]

CC(C)(C)c1ccc(C(O)CCCN2CCC(C(O)(c3ccccc3)c3ccccc3)CC2)cc1 (stereo not drawn) [TERFENADINE]
Not Active: [1] | [2] | [3] | [4] | [5] | [6] | [7] | [8] | [9]

O=C1CCC(N2C(=O)c3ccccc3C2=O)C(=O)N1 (stereo not drawn) [THALIDOMIDE]
Not Active: [1] | [2] | [3] | [4] | [5] | [6] | [7] | [8] | [9]

Cc1cccc(Nc2ccncc2S(=O)(=O)NC(=O)NC(C)C)c1 [TORSEMIDE]
Not Active: [1] | [2] | [3] | [4] | [5] | [6] | [7] | [8] | [9]

CC(C)C[C@H](NC(=O)[C@@H](O)[C@H](N)Cc1ccccc1)C(=O)O [UBENIMEX]
Not Active: [1] | [2] | [3] | [4] | [5] | [6] | [7] | [8] | [9]

Cc1onc(-c2ccccc2)c1-c1ccc(S(N)(=O)=O)cc1 [VALDECOXIB]
Not Active: [1] | [2] | [3] | [4] | [5] | [6] | [7] | [8] | [9]

CC[C@]1(O)C[C@@H]2CN(CCc3c([nH]c4ccccc34)[C@@](C(=O)OC)(c3cc4c(cc3OC)N(C)[C@H]3[C@@](O)(C(=O)OC)[C@H](OC(C)=O)[C@]5(CC)C=CCN6CC[C@]43[C@@H]65)C2)C1 [VINBLASTINE]
Not Active: [1] | [2] | [3] | [4] | [5] | [6] | [7] | [8] | [9]
